Results as given in patent US20080242544A1, “Phytoactive Composition” (priority 2004, published 2008).
Where two headings read alike, the source gives them in different places.

Experiments:
[1] = cited from earlier work; for logP: Table 6
Field Pansy = system: Field Pansy; design: species or system Viola avensis; details: in vivo

SMILES	Log Pow ([1]; Table 5, no pH given)	also measured
CCCOCCN(C(=O)CCl)c1c(CC)cccc1CC [pretilachlor]	4.1	–
C#CCOc1cc(-n2nc3n(c2=O)CCCC3)c(Cl)cc1Cl [azafenidin]	2.7	–
Cc1ccc(NC(=O)N(C)C)cc1Cl [chlorotoluron]	2.5	–
COC(=O)[C@@H](C)Oc1ccc(Oc2ncc(C(F)(F)F)cc2Cl)cc1 [haloxyfop-P-methyl]	4	–
CCOC1Oc2ccc(OS(C)(=O)=O)cc2C1(C)C (stereo not shown) [ethofumesate]	2.7	–
CCOc1nc(F)cc2nc(S(=O)(=O)Nc3c(Cl)cccc3C(=O)OC)nn12 [cloransulam-methyl]	1.2	–
CS(=O)(=O)c1cc(Cl)ccc1C(=O)c1cnoc1C1CC1 [Isoxachlortole]	–	Log P ([1]; pH 2): 2.76 (pH 2)
O=C(OCc1ccccc1)c1sc(Cl)nc1C(F)(F)F [flurazole]	–	logP [1]: 4.1
CN(C)C(=O)Nc1ccccc1 [fenuron]	1.4	–
N#Cc1cc(Br)c(O)c(Br)c1 [bromoxynil]	2.8	logP [1]: 2.8
O=C(O)COc1nc(Cl)c(Cl)cc1Cl [triclopyr]	–	Log Pow ([1]; Table 5, pH 5): 0.4 (pH 5)
CCCC(=NOCC)C1=C(O)CC(C2CCCSC2)CC1=O (stereo not shown) [cycloxydim]	1.4	–
CCc1cnc(C2=NC(C)(C(C)C)C(=O)N2)c(C(=O)O)c1 (stereo not shown) [imazethapyr]	–	Log P ([1]; pH 7): 1.49 (pH 7)
C[C@@H](Oc1ccc(Oc2ccc(C(F)(F)F)cn2)cc1)C(=O)O [fluazifop-P]	3.1	–
CCOC(=O)c1cnn(C)c1S(=O)(=O)NC(=O)Nc1nc(OC)cc(OC)n1 [pyrazosulfuron-ethyl]	1.3	–
CS(=O)(=O)NC(=O)c1cc(Oc2ccc(C(F)(F)F)cc2Cl)ccc1[N+](=O)[O-] [fomesafen]	–	Log Pow ([1]; pH 1): 2.9 (pH 1)
COC(=O)c1c(Cl)c(Cl)c(C(=O)OC)c(Cl)c1Cl [chlorthal-dimethyl]	4.3	–
COc1ccsc1CN(C(=O)CCl)c1c(C)cccc1C [thenylchlor]	3.5	–
CC(=O)Nc1cc(NS(=O)(=O)C(F)(F)F)c(C)cc1C [mefluidide]	2	–
C#CC(C)(C)NC(=O)c1cc(Cl)cc(Cl)c1 [propyzamide]	3.2	–

SMILES	Log Pow ([1]; Table 5, no pH given)	also measured
COC(=O)c1ccccc1S(=O)(=O)NC(=O)Nc1nc(C)cc(C)n1 [sulfometuron-methyl]	–	Log Pow ([1]; pH 5): 1.2 (pH 5)
CCSC(=O)N1CCCCCC1 [molinate]	2.9	–
CC(Oc1ccc(Oc2ncc(C(F)(F)F)cc2Cl)cc1)C(=O)O (stereo not shown) [haloxyfop]	3.4	–
CCNc1nc(NC(C)(C)C)nc(OC)n1 [terbumeton]	3	–
CCOC(=O)Cc1cccc2ccccc12 [ethyl 1-naphthylacetate]	–	logP [1]: 3.8
CCOCCOC(=O)C(C)Oc1ccc(Oc2ncc(C(F)(F)F)cc2Cl)cc1 (stereo not shown) [haloxyfop-etotyl]	4.3	–
CCCCOC(=O)[C@@H](C)Oc1ccc(Oc2ccc(C(F)(F)F)cn2)cc1 [fluazifop-p-butyl]	4.5	–
COC(=O)Nc1cccc(OC(=O)Nc2cccc(C)c2)c1 [phenmedipham]	–	Log Pow ([1]; pH 3.9): 3.6 (pH 3.9)
Cc1cccc(C)c1N(Cn1cccn1)C(=O)CCl [metazachlor]	2.1	–
CCc1cccc(C)c1N(COC(C)C)C(=O)CCl [propisochlor]	3.5	–
O=C(O)c1cc(Oc2ccc(C(F)(F)F)cc2Cl)ccc1[N+](=O)[O-] [acifluorfen]	4.2	–
CCC(CC)Nc1c([N+](=O)[O-])cc(C)c(C)c1[N+](=O)[O-] [pendimethalin]	5.2	logP [1]: 5.2
CON(C)C(=O)Nc1ccc(Oc2ccc3c(c2)OC(C)(OC)CC3(C)C)cc1 (stereo not shown) [metobenzuron]	6.3	–
CCNc1nc(Cl)nc(NC(C)(C)C)n1 [terbuthylazine]	3.2	–
CCCCOC(=O)C(C)Oc1ccc(Oc2ccc(C(F)(F)F)cn2)cc1 (stereo not shown) [fluazifop-butyl]	4.5	–
Cc1nnc(-c2ccccc2)c(=O)n1N [metamitron]	0.8	–
CCCN(CCC)c1c([N+](=O)[O-])cc(C(F)(F)F)cc1[N+](=O)[O-] [trifluralin]	4.8	–
C[C@@H]1CC[C@@H](C(C)(C)S)C(=O)C1 [(1R,4R)-8-mercapto-3-p-menthanone]	–	logP(o/w) ([1]; Table 1, carriers): 2.9
Cc1cc(Cl)ccc1OCC(=O)O [MCPA, (4-chloro-2-methylphenoxy)acetic acid]	–	plant vigour of Pansy versus untreated (Field Pansy): more vigorous plants than untreated only plants; Log Pow ([1]; pH 1): 2.8 (pH 1)
COC(=O)c1cc(Oc2ccc(Cl)cc2Cl)ccc1[N+](=O)[O-] [bifenox]	4.5	–

SMILES	Log Pow ([1]; Table 5, no pH given)	also measured
CCc1cccc(C)c1N(C(=O)CCl)C(C)COC (stereo not shown) [Metolachlor]	2.9	Log P ([1]; Table 4, no pH given): 3.00
CC(C)C1(C)N=C(c2nc3ccccc3cc2C(=O)O)NC1=O (stereo not shown) [imazaquin]	2.9	–
CCOc1cc(Oc2ccc(C(F)(F)F)cc2Cl)ccc1[N+](=O)[O-] [oxyfluorfen]	4.5	logP [1]: 4.5
COC(=O)c1ccccc1S(=O)(=O)NC(=O)Nc1nc(OC(F)F)cc(OC(F)F)n1 [primisulfuron-methyl]	–	Log Pow ([1]; Table 5, pH 7): 0.2 (pH 7)
CCCCCCCCSC(=O)Oc1cc(Cl)nnc1-c1ccccc1 [pyridate]	4	–
CCN(C(=O)n1nnn(-c2ccccc2Cl)c1=O)C1CCCCC1 [Fentrazamide]	–	Log P ([1]; Table 4, no pH given): 3.60
COc1cc(OC)n2nc(S(=O)(=O)Nc3c(Cl)ccc(C)c3Cl)nc2n1 [metosulam]	–	Log Pow ([1]; pH 9): 3.1 (pH 9)
CS(=O)(=O)c1ccc(C(=O)C2C(=O)CCCC2=O)c([N+](=O)[O-])c1 [Mesotrione]	–	Log P ([1]; Table 4, no pH given): 2.2
C#CCN1C(=O)COc2cc(F)c(N3C(=O)C4=C(CCCC4)C3=O)cc21 [flumioxazin]	1.3	–
CC(C)c1nn(C(=O)NC(C)(C)C)c(=O)n1N [amicarbazone]	–	Log P ([1]; pH 7): 1.23 (pH 7)
CCNc1nc(Cl)nc(NCC)n1 [simazine]	2.1	–
CNc1cnn(-c2cccc(C(F)(F)F)c2)c(=O)c1Cl [norflurazon]	2.5	logP [1]: 2.45
COc1cc(OC)nc(Oc2cccc(Oc3nc(OC)cc(OC)n3)c2C(=O)ON=C(c2ccccc2)c2ccccc2)n1 [pyribenzoxim]	3	–
COc1ccc(NC(=O)N(C)C)cc1Cl [metoxuron]	1.6	–
CCc1cccc(C)c1N(C(=O)CCl)[C@@H](C)COC [S-metolachlor]	3.1	–
CCC(=O)Nc1ccc(Cl)c(Cl)c1 [propanil]	3.3	–
CON(C)C(=O)Nc1ccc(Cl)c(Cl)c1 [linuron]	3	–
Cc1ccc(C(=O)COc2c(C(=O)c3ccc(Cl)c(C)c3Cl)c(C)nn2C)cc1 [benzofenap]	4.7	–
